Reference: PMC4535455 (International journal of pharmaceutics, 2015)
Values after ≈ are worked out from the molar mass of the structure shown. Where a SMILES comes first, the peptide text is derived from it. [ ]: non-standard residue; d: D form. Sar = CNCC(=O)O

What was measured:
peptide transporters = experiment: [3H]-GlySar cellular uptake in MDCK-MDR1 cells; assay type: cell-based; details: DPBS pH 7.4, 37 °C
MDCK-WT cells = experiment: Cytotoxicity by LDH assay; assay type: cell-based
[1] = Aqueous solubility studies

With `C[C@]12C=CC(=O)C=C1CC[C@@H]1[C@@H]2[C@@H](O)C[C@@]2(C)[C@H]1CC[C@]2(O)C(=O)CO` [prednisolone, Prednisolone] the “[3H]-GlySar uptake in the presence of compound (percentage of control)” value (from here on “[3H]-GlySar uptake … (percentage of control)”) (peptide transporters; 100 µM) was “No significant inhibition”, the “Cytotoxic effects (LDH release)” value (MDCK-WT cells; 5–250 µM, 4 h) was “did not generate any cytotoxic effects” and the solubility at 4 h [1] was 310 ± 30 µg/mL (≈ 860 µM).

In the case of `CN(CC(=O)O)C(=O)CN` [Gly-Sar] (H-Gly-[Sar]-OH), the “[3H]-GlySar uptake … (percentage of control)” value (peptide transporters; 1 mM) is reported as 40% and the “[3H]-GlySar uptake … (percentage of control)” value (peptide transporters; 2 mM) is reported as 30%.

In the case of Triton x-100, the “Cytotoxicity (LDH release)” value (MDCK-WT cells; 1%, positive control) is reported as “displayed significant cytotoxicity” and the “Increase in absorbance (LDH) versus negative control” value (MDCK-WT cells; 1%, positive control) is reported as “About 5 fold”.
